Data reported in patent US20240316038A1, “APOL1 INHIBITORS AND METHODS OF USE” (Maze Therapeutics, Inc., priority 2021, published 2024).

Legend:
[1] = target: T1, APOL1 G2 (Homo sapiens, UniProt O14791, DEL388-389); assay: Rescue of HEK293 cell death caused by overexpression of APOL1 (CellTiter-Glo luminescence), HEK293/T-REx APOL1 G2/clone #2; type: cell-based; details: reversal of cell death caused by overexpression of APOL1; geometric mean of at least 2 assay runs, † = single assay run (technical duplicate)
T1 construct: expressed in transfected cells; host or cells: HEK293 T-REx clonal lines: HEK T-REx/GCaMP6f/APOL1 G2 K6.3 in A1, HEK293/T-REx APOL1 G2/clone #2 in A2
T1 sequence (O14791 with tags, fused parts or gaps DEL388-389): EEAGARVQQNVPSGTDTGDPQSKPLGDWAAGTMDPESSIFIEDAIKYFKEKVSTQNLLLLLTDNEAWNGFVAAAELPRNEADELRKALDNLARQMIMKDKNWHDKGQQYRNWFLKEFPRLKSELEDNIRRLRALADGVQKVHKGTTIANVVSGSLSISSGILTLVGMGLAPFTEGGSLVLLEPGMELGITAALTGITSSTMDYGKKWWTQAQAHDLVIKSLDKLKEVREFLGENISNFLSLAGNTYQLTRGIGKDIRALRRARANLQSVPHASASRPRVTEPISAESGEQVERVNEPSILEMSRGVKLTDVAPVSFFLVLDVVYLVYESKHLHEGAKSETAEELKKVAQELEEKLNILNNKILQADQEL
In short: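 Rescue EC50s come from four-parameter logistic fits, geometric mean of at least 2 runs on separate days, each in duplicate. Readout: CellTiter-Glo luminescence after 17 h at 37 °C of 5,000 HEK293/T-REx APOL1 G2 clone #2 cells/well, with 6 ng/mL doxycycline to induce APOL1 and 3-fold serial compound dilutions in 0.5% DMSO.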

[2] = target: T1, APOL1 G2; assay: APOL1 calcium transport inhibition assay (GCaMP6f calcium influx, FLIPR) in HEK T-REx/GCaMP6f/APOL1 G2 K6.3 cells; type: cell-based; details: inhibition of APOL1-mediated calcium influx; geometric mean of at least 2 assay runs, † = single assay run (technical duplicate)
In short: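 HEK293 cells stably expressing GCaMP6f, APOL1 G2 induced 6 h with doxycycline (20 ng/mL added), then washed into Ca2+-free Tyrode's buffer pH 7.4. Compounds (8-point dose response) preincubated 10 min at room temperature, then Ca2+ injected to 5 mM final and influx read on FLIPR. AC50 reported as geometric mean of runs.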

| AC50 [2] | SMILES | EC50 [1] |
| --- | --- | --- |
| 709 nM | C[C@@H]1CN(CC(O)c2cc(Cl)cc(C#N)c2)C[C@H]1COc1ccc(S(C)(=O)=O)cc1 (single isomer, unassigned) [Compound 122, 3-chloro-5-[(1R or 1S)-1-hydroxy-2-[(3S,4S)-3-[(4-methanesulfonylphenoxy)methyl]-4-methylpyrrolidin-1-yl]ethyl] benzonitrile] | 1340 nM |
| 148 nM | C[C@@H]1CN(CC(O)c2cccc(Cl)c2)C[C@H]1COc1ccc(S(C)(=O)=O)cc1 (single isomer, unassigned) [Compound 124, (1R or 1S)-1-(3-chlorophenyl)-2-[(3S,4S)-3-[(4-methanesulfonylphenoxy)methyl]-4-methylpyrrolidin-1-yl]ethan-1-ol] | 242 nM |
| 2350 nM | C[C@@H]1CN(CC(O)c2cccc(Cl)c2)C[C@H]1COc1ccc(S(C)(=O)=O)cc1 (single isomer, unassigned) [Compound 125, (1S or 1R)-1-(3-chlorophenyl)-2-[(3S,4S)-3-[(4-methanesulfonylphenoxy)methyl]-4-methylpyrrolidin-1-yl]ethan-1-ol] | 1550 nM |
| 2480 nM | C[C@@H]1CN(CC(O)c2cccc(C#N)c2)C[C@H]1COc1ccc(S(C)(=O)=O)cc1 (single isomer, unassigned) [Compound 127, 3-[(1S or 1R)-1-hydroxy-2-[(3S,4S)-3-[(4-methanesulfonylphenoxy)methyl]-4-methylpyrrolidin-1-yl]ethyl] benzonitrile] | > 10000 nM |
| 349 nM | C[C@@H]1CN(CC(O)c2cccc(C#N)c2)C[C@H]1COc1ccc(S(C)(=O)=O)cc1 (single isomer, unassigned) [Compound 128, 3-[(1R or 1S)-1-hydroxy-2-[(35,4S)-3-[(4-methanesulfonylphenoxy)methyl]-4-methylpyrrolidin-1-ylethyl]benzonitrile] | 366 nM |
| 2170 nM | C[C@@H]1CN(CC(O)c2cc(C#N)cc(C#N)c2)C[C@H]1COc1ccc(S(C)(=O)=O)cc1 (single isomer, unassigned) [Compound 130, 5-[(1R or 1S)-1-hydroxy-2-[(3S,4S)-3-[(4-methanesulfonylphenoxy)methyl]-4-methylpyrrolidin-1-yl]ethyl]benzene-1,3-dicarbonitrile] | > 10000 nM |
| 394 nM | C[C@@H]1CN(CC(O)c2cc(C#N)cc(C#N)c2)C[C@H]1COc1ccc(S(C)(=O)=O)cc1 (single isomer, unassigned) [Compound 131, 5-[(1S or 1R)-1-hydroxy-2-[(35,4S)-3-[(4-methanesulfonylphenoxy)methyl]-4-methylpyrrolidin-1-yl]ethyl]benzene-1,3-dicarbonitrile] | 460 nM |
| > 12500 nM | CC1CC(COc2ccc(S(C)(=O)=O)cc2)CN1CCc1cccc(C#N)c1 (single isomer, unassigned) [Compound 135, rac-cis or trans-3-{2-[4-[(4-methanesulfon-ylphenoxy)meth-yl]-2-methyl-pyrrolidin-1-yl]-ethyl}benzo-nitrile] | 5730 nM |

Second part, the compound before the results:

| SMILES | AC50 [2] | EC50 [1] |
| --- | --- | --- |
| CC(Cc1cccc(Cl)c1)NC[C@H](O)COc1ccc(N(C)S(C)(=O)=O)cc1 (single isomer, unassigned) [Compound 96, N-(4-((S)-3-(((R) or (S)-1-(3-chlorophenyl)propan-2-yl)amino)-2-hydroxypropoxy)phe-nyl)-N-methylmethanesulfon-amide] | 3770 nM | > 30000 nM |
| CN(c1ccc(OCC(C)(O)CNCCc2cccc(Cl)c2)cc1)S(C)(=O)=O (single isomer, unassigned) [Compound 103, (R) or (S)-N-(4-(3-((3-chlorophenethyl)a-mino)-2-hydroxy-2-methylpropxy)phe-nyl)-N-methylmethanesulfon-amide] | 10900 nM | > 30000 nM |
| CN(c1ccc(OCC(C)(O)CNCCc2cccc(Cl)c2)cc1)S(C)(=O)=O (single isomer, unassigned) [Compound 104, (S) or (R)-N-(4-(3-((3-chlorophenethyl)a-mino)-2-hydroxy-2-methylpropoxy)phe-nyl)-N-methylmethanesulfon-amide] | < 382 nM | 1860 nM |
| CN(c1ccc(NCC(O)CNCCc2cccc(Cl)c2)cc1)S(C)(=O)=O (single isomer, unassigned) [Compound 106, (R) or (S)-N-(4-((3-((3-chlorophenethyl)a-mino)-2-hydroxypropyl)ami-no)phenyl)-N-methylmethanesulfon-amide] | 2790 nM | 6240 nM |
| COCCS(=O)(=O)c1ccc(OC[C@H]2CN(CCc3cccc(Cl)c3)C[C@@H]2C)cc1 (single isomer, unassigned) [Compound 110, (3R,4R or 3S,4S)-1-[2-(3-chlorophenyl)ethyl]-3-{[4-(2-methoxyethane-sulfonyl)phenoxy]methyl}-4-methylpyrrolidine] | 91.4 nM | 135 nM |
| COCCS(=O)(=O)c1ccc(OC[C@@H]2CN(CCc3cccc(Cl)c3)C[C@H]2C)cc1 (single isomer, unassigned) [Compound 111, (3S,4S or 3R,4R)-1-[2-(3-chlorophenyl)ethyl]-3-{[4-(2-methoxyethane-sulfonyl)phenoxy]methyl}-4-methylpyrrolidine] | 494 nM | 1880 nM |
| C[C@H]1CN(CCc2cccc(Cl)c2)C[C@@H]1COc1ccc(S(=O)(=O)CCO)cc1 (single isomer, unassigned) [Compound 112, 2-(4-{[(3R,4R or 3S,4S)-1-[2-(3-chlorophenyl)ethyl]-4-methylpyrrolidin-3-yl]methoxy}benzene-sulfonyl)ethan-1-ol] | > 159 nM | 29.8 nM |
| C[C@@H]1CN(CCc2cccc(Cl)c2)C[C@H]1COc1ccc(S(=O)(=O)CCO)cc1 (single isomer, unassigned) [Compound 113, 2-(4-{[(35,4S or 3R,4R)-1-[2-(3-chlorophenyl)ethyl]-4-methylpyrrolidin-3-yl]methoxy}benzene-sulfonyl)ethan-1-ol] | 907 nM | 1070 nM |
| C[C@@H]1C[C@H](COc2ccc(S(C)(=O)=O)cc2)CN1CC(O)c1cc(Cl)cc(C#N)c1 (single isomer, unassigned) [Compound 114, 3-chloro-5-[(1S or 1R)-1-hydroxy-2-[(2R,4S)-4-[(4-methanesulfonylphenoxy)methyl]-2-methylpyrrolidin-1-yl]ethyl] benzonitrile] | 709 nM | 439 nM |
| C[C@@H]1C[C@H](COc2ccc(S(C)(=O)=O)cc2)CN1CC(O)c1cc(Cl)cc(C#N)c1 (single isomer, unassigned) [Compound 115, 3-chloro-5-[(1R or 1S)-1-hydroxy-2-[(2R,4S)-4-[(4-methanesulfonylphenoxy)methyl]-2-methylpyrrolidin-1-yl]ethyl] benzonitrile] | 756 nM | 44.7 nM |
| C[C@@H]1C[C@H](COc2ccc(S(C)(=O)=O)cc2)CN1CC(O)c1cccc(C#N)c1 (single isomer, unassigned) [Compound 116, 3-[(1R or 1S)-1-hydroxy-2-[(2R,4S)-4-[(4-methanesulfonylphenoxy)methyl]-2-methylpyrrolidin-1-yl]ethyl] benzonitrile] | 374 nM | 76 nM |
| C[C@@H]1C[C@H](COc2ccc(S(C)(=O)=O)cc2)CN1CC(O)c1cccc(C#N)c1 (single isomer, unassigned) [Compound 117, 3-[(1S or 1R)-1-hydroxy-2-[(2R,4S)-4-[(4-methanesulfonylphenoxy)methyl]-2-methylpyrrolidin-1-yl]ethyl] benzonitrile] | 1080 nM | 1240 nM |
| C[C@@H]1C[C@H](COc2ccc(S(C)(=O)=O)cc2)CN1CC(O)c1cc(C#N)cc(C#N)c1 (single isomer, unassigned) [Compound 118, 5-[(1R or 1S)-1-hydroxy-2-[(2R,4S)-4-[(4-methanesulfonylphenoxy)methyl]-2-methylpyrrolidin-1-ylethyl]benzene-1,3-dicarbonitrile] | 936 nM | 4040 nM |
| C[C@@H]1C[C@H](COc2ccc(S(C)(=O)=O)cc2)CN1CC(O)c1cc(C#N)cc(C#N)c1 (single isomer, unassigned) [Compound 119, 5-[(1S or 1R)-1-hydroxy-2-[(2R,4S)-4-[(4-methanesulfonylphenoxy)methyl]-2-methylpyrrolidin-1-yl]ethyl]benzene-1,3-dicarbonitrile] | 784 nM | 133 nM |
| C[C@@H]1CN(CC(O)c2cc(Cl)cc(C#N)c2)C[C@H]1COc1ccc(S(C)(=O)=O)cc1 (single isomer, unassigned) [Compound 121, 3-chloro-5-[(1S or 1R)-1-hydroxy-2-[(3S,4S)-3-[(4-methanesulfonylphenoxy)methyl]-4-methylpyrrolidin-1-ylethyl]benzonitrile] | 270 nM | 100 nM |
